From ChEMBL document CHEMBL6103648, “AI-Driven Discovery of Highly Specific and Efficacious hCES2A Inhibitors for Ameliorating Irinotecan-Triggered Gut Toxicity” (J Med Chem, 2025)
Values after ≈ are worked out from the molar mass of the structure shown. Active and inactive are the calls of the source. The rule behind the calls is not given here.

Legend:
[1] = Inhibition of human CES1A using NLMe as substrate incubated for 3 mins by chemiluminescence analysis
[2] = biological target: T1, Cholinesterase (Homo sapiens, UniProt P06276); experiment: Inhibition of human BuChE using BTCI as substrate incubated for 33 mins by Ellman's method
[3] = system: Mus musculus; experiment: Inhibition of irinotecan-triggered gut toxicity in C57BL/6J mouse bearing tumor cells assessed as decrease in SN38 level in colon tissue at 25 to 50 mg/kg/day, po treated for 14 days; type: functional, organism-based; conditions: dose 25-50 mg/kg/day, time 14.0 day
[4] = Sub-acute toxicity in C57BL/6J mouse assessed as abnormality in heart at 100 mg/kg/day, po treated for 14 days consecutively by H and E staining based analysis; type: organism-based; conditions: in vivo, 336 h, time 14 day
[5] = Drug distribution in jejunum of C57BL/6J mouse at 100 mg/kg, po administered as single dose measured for 0.5 to 3 hrs by UHPLC-Q-Orbitrap HRMS analysis; type: ADME, organism-based; conditions: in vivo, time 0.5-3 hrs
[6] = system: Mus musculus; experiment: Inhibition of irinotecan-triggered gut toxicity in C57BL/6J mouse bearing tumor cells assessed as decrease in serum CREA level at 25 to 50 mg/kg/day, po treated for 14 days; type: functional, organism-based; conditions: dose 25-50 mg/kg/day, time 14.0 day
[7] = system: Mus musculus; experiment: Inhibition of irinotecan-triggered gut toxicity in C57BL/6J mouse bearing tumor cells assessed as decrease in IL-1beta level in colon tissue administered orally treated for 14 days; type: functional, organism-based; conditions: dose 25-50 mg/kg/day, route po, time 14.0 day
[8] = Sub-acute toxicity in C57BL/6J mouse assessed as abnormality in lung at 100 mg/kg/day, po treated for 14 days consecutively by H and E staining based analysis; type: organism-based; conditions: in vivo, 336 h, time 14 day
[9] = Inhibition of human CES1A using NLMe as substrate preincubated for 3 mins followed by substrate addition measured after 30 mins by chemiluminescence analysis
[10] = Sub-acute toxicity in C57BL/6J mouse assessed as abnormality in spleen at 100 mg/kg/day, po treated for 14 days consecutively by H and E staining based analysis; type: organism-based; conditions: in vivo, 336 h, time 14 day
[11] = biological target: T1, Cholinesterase; experiment: Inhibition of human BuChE using BTCI as substrate incubated for 3 mins by Ellman's method
[12] = Permeability across basal to apical side in human Caco-2 cells assessed as cumulative penetration amount at 100 uM incubated for 120 mins by UPLC-MS/MS analysis; type: ADME, cell-based; conditions: caco-2, 2 h
[13] = biological target: Prothrombin (Homo sapiens, UniProt P00734); experiment: Inhibition of human Thrombin using Z-GGRAMC as substrate preincubated for 3 mins followed by substrate addition by fluorescence based assay
[14] = Sub-acute toxicity in C57BL/6J mouse assessed as abnormality in kidney at 100 mg/kg/day, po treated for 14 days consecutively by H and E staining based analysis; type: organism-based; conditions: in vivo, 336 h, time 14 day
[15] = Sub-acute toxicity in C57BL/6J mouse assessed as change in ALP level at 100 mg/kg/day, po treated for 14 days consecutively; type: organism-based; conditions: in vivo, 336 h, time 14 day
[16] = Drug distribution in ileum of C57BL/6J mouse at 100 mg/kg, po administered as single dose measured for 0.5 to 3 hrs by UHPLC-Q-Orbitrap HRMS analysis; type: ADME, organism-based; conditions: in vivo, time 0.5-3 hrs
[17] = biological target: Dipeptidyl peptidase 4 (Homo sapiens, UniProt P27487); experiment: Inhibition of human serum DPP-IV using GP-BAN as substrate preincubated for 3 mins followed by substrate addition by fluorescence based assay
[18] = Sub-acute toxicity in C57BL/6J mouse assessed as change in CREA level at 100 mg/kg/day, po treated for 14 days consecutively; type: organism-based; conditions: in vivo, 336 h, time 14 day
[19] = Efflux ratio of apparent permeability across basal to apical side over apical to basal side in human Caco-2 cells at 50 uM incubated for 120 mins by UPLC-MS/MS analysis; type: ADME, cell-based
[20] = system: Mus musculus; experiment: Inhibition of irinotecan-triggered gut toxicity in C57BL/6J mouse bearing tumor cells assessed as increase in body weight at 25 to 50 mg/kg/day, po treated for 14 days; type: functional, organism-based; conditions: dose 25-50 mg/kg/day, time 14.0 day
[21] = system: Mus musculus; experiment: Inhibition of irinotecan-triggered gut toxicity in C57BL/6J mouse bearing tumor cells assessed as decrease in DAI score at 25 to 50 mg/kg/day, po treated for 14 days; type: functional, organism-based; conditions: dose 25-50 mg/kg/day, time 14.0 day
[22] = Permeability across apical to basal side in human Caco-2 cells assessed as cumulative penetration amount at 100 uM incubated for 120 mins by UPLC-MS/MS analysis; type: ADME, cell-based; conditions: caco-2, 2 h
[23] = Apparent permeability across basal to apical side in human Caco-2 cells at 100 uM incubated for 120 mins by UPLC-MS/MS analysis; type: ADME, cell-based
[24] = Sub-acute toxicity in C57BL/6J mouse assessed as change in mental state at 100 mg/kg/day, po treated for 14 days consecutively; type: organism-based; conditions: in vivo, 336 h, time 14 day
[25] = Sub-acute toxicity in C57BL/6J mouse assessed as abnormality in gastrointestinal tract at 100 mg/kg/day, po treated for 14 days consecutively by H and E staining based analysis; type: organism-based; conditions: in vivo, 336 h, time 14 day
[26] = biological target: Cytochrome P450 2C19 (Homo sapiens, UniProt P33261); experiment: Inhibition of CYP2C19 in human liver microsomes using omeprazole as substrate upto 10 uM; type: ADME, Microsome
[27] = Aqueous solubility of compound by UPLC-MS/MS analysis; type: physicochemical; conditions: buffer
[28] = system: HepG2; experiment: Cytotoxicity against human HepG2 cells at <20 uM; type: toxicity, cell-based; conditions: hepg2, 20 µM
[29] = system: Mus musculus; experiment: Inhibition of irinotecan-triggered gut toxicity in C57BL/6J mouse bearing tumor cells assessed as increase in claudin-1 level in colon tissue at 25 to 50 mg/kg/day, po treated for 14 days by immunofluorescence based analysis; type: functional, organism-based; conditions: dose 25-50 mg/kg/day, time 14.0 day
[30] = Sub-acute toxicity in C57BL/6J mouse assessed as abnormality in brain at 100 mg/kg/day, po treated for 14 days consecutively by H and E staining based analysis; type: organism-based; conditions: in vivo, 336 h, time 14 day
[31] = Drug distribution in duodenum of C57BL/6J mouse at 100 mg/kg, po administered as single dose measured for 0.5 to 3 hrs by UHPLC-Q-Orbitrap HRMS analysis; type: ADME, organism-based; conditions: in vivo, time 0.5-3 hrs
[32] = system: Mus musculus; experiment: Inhibition of irinotecan-triggered gut toxicity in C57BL/6J mouse bearing tumor cells assessed as decrease in IL-6 level in colon tissue administered orally treated for 14 days; type: functional, organism-based; conditions: dose 25-50 mg/kg/day, route po, time 14.0 day
[33] = Sub-acute toxicity in C57BL/6J mouse assessed as change in TP level at 100 mg/kg/day, po treated for 14 days consecutively; type: organism-based; conditions: in vivo, 336 h, time 14 day
[34] = biological target: Cytochrome P450 2C9 (Homo sapiens, UniProt P11712); experiment: Inhibition of CYP2C9 in human liver microsomes using diclofenac as substrate upto 10 uM; type: ADME, Microsome
Chain of Cytochrome P450 2C9 (P11712 whole entry): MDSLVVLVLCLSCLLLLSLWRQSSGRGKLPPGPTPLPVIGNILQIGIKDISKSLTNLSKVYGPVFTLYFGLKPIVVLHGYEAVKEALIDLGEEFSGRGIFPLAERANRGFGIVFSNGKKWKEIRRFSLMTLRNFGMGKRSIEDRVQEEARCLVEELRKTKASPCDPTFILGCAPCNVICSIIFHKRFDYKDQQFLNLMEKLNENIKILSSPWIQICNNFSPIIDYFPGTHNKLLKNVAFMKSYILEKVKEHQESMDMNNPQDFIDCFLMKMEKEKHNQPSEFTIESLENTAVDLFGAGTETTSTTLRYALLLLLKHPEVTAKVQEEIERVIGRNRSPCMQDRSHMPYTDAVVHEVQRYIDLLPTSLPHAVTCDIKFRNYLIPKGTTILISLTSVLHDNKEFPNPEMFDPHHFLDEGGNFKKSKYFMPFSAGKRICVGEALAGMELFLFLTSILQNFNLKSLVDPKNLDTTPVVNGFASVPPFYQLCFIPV

T1 sequence (P06276 whole entry): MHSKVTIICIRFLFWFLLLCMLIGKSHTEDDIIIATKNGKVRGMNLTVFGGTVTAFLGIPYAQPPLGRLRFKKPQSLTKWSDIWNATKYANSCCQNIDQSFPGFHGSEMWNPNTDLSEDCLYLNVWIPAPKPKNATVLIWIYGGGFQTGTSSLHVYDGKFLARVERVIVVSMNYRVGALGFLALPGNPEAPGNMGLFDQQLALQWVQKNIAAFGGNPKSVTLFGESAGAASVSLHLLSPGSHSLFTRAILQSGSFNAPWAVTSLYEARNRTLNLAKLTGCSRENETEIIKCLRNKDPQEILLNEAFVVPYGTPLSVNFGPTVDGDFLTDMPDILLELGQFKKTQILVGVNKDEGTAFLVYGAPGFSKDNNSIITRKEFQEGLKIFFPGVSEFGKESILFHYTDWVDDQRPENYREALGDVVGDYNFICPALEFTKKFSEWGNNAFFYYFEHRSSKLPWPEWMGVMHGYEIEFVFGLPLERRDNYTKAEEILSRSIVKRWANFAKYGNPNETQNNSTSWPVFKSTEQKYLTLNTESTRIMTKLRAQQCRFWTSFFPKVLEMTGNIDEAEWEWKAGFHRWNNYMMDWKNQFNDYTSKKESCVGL
Chain of Cytochrome P450 2C19 (P33261 whole entry): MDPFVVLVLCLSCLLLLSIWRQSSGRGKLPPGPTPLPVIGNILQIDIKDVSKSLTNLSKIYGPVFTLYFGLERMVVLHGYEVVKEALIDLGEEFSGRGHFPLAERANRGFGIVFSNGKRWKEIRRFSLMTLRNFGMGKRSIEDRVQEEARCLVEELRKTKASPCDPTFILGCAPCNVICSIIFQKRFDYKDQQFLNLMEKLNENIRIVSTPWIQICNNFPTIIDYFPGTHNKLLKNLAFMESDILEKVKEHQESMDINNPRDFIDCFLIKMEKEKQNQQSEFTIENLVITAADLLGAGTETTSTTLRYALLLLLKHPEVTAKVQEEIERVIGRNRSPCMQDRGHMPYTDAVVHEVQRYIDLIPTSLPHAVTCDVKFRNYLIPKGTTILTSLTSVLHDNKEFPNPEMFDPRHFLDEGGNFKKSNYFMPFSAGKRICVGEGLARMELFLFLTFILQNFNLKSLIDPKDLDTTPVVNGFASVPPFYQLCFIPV
Chain of Dipeptidyl peptidase 4 (P27487 whole entry): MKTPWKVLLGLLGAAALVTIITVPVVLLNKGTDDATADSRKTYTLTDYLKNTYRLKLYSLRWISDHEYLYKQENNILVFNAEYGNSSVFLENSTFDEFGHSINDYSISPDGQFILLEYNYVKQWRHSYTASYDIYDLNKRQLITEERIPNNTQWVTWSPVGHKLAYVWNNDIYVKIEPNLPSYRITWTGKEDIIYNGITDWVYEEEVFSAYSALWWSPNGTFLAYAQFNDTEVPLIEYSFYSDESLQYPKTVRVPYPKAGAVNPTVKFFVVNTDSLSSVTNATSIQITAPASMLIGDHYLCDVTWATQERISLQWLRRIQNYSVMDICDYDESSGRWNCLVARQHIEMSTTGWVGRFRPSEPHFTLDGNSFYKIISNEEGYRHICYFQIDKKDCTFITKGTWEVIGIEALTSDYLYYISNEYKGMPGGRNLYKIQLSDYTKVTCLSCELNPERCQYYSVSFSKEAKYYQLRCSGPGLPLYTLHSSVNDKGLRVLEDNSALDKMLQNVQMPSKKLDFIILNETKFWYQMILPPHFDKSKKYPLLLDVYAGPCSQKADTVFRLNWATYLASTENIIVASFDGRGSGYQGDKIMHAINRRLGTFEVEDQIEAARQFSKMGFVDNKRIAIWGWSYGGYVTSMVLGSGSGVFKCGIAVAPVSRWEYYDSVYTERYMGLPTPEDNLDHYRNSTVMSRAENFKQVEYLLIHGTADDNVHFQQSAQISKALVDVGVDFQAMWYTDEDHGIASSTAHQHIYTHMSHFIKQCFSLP

Q: With `CCN(C)C(=O)Oc1ccc(C(=O)N2CCC(Cc3ccccc3)CC2)cc1OC` as the compound, how does the IC50 [1] read?
A: 4.4 µM

Q: And the IC50 [2]?
A: 0.834 µM

Q: And the inhibition [3]?
A: Active

Q: What about the Activity [4] of the same compound?
A: Non-toxic

Q: What about the Drug uptake [5] of the same compound?
A: Active

Q: What about the inhibition [6] of the same compound?
A: Active

Q: And the inhibition [7]?
A: Active

Q: What about the Activity [8] of the same compound?
A: Non-toxic

Q: And the IC50 [9]?
A: 2.42 µM

Q: What about the Activity [10] of the same compound?
A: Non-toxic

Q: And the IC50 [11]?
A: 3.06 µM

Q: What about the Activity [12] of the same compound?
A: 6.29 µM

Q: What about the IC50 [13] of the same compound?
A: > 10 µM

Q: What about the Activity [14] of the same compound?
A: Non-toxic

Q: And the Activity [15]?
A: Non-toxic

Q: And the Drug uptake [16]?
A: Active

Q: And the IC50 [17]?
A: > 10 µM

Q: What about the Activity [18] of the same compound?
A: Non-toxic

Q: What about the efflux ratio at 2 h, 50 µM [19] of the same compound?
A: 0.67

Q: What about the inhibition [20] of the same compound?
A: Active

Q: And the inhibition [21]?
A: Active

Q: And the Activity [22]?
A: 9.47 µM

Q: What about the Papp B→A at 2 h, 100 µM [23] of the same compound?
A: 7.8 ×10⁻⁶ cm/s

Q: What about the Activity [24] of the same compound?
A: Non-toxic

Q: What about the Activity [25] of the same compound?
A: Non-toxic

Q: And the “inhibition (INH)” value [26]?
A: Not_active

Q: What about the solubility [27] of the same compound?
A: 32 µg/mL (≈ 78 µM)

Q: And the Activity [28]?
A: Non-toxic

Q: And the inhibition [29]?
A: Active

Q: And the Activity [30]?
A: Non-toxic

Q: And the Drug uptake [31]?
A: Active

Q: What about the inhibition [32] of the same compound?
A: Active

Q: What about the Activity [33] of the same compound?
A: Non-toxic

Q: What about the “inhibition (INH)” value [34] of the same compound?
A: Not_active
